In ChEMBL document CHEMBL1201862, “PubChem BioAssay data set” (2004):
Calls of active or inactive are those of the source. Cut-off read from the data, not from the text of the source: actives have a measured EC50 and inactives only a lower limit.

Legend:
[1] = inhibitors of SNCA 5'UTR-driven reporter translation, confirmation, H4 neuroglioma cells, luminescence (AID 1988); type: functional, cell-based
[2] = inhibitors of firefly luciferase expression or activity, dose response, H4 neuroglioma cells, luminescence (AID 1990); type: functional, cell-based
[3] = Luminescence Cell-Based Dose Response HTS to Identify Inhibitors of 5'UTR Stem-Loop Driven Prion Protein mRNA Translation in H4 Neuroglioblastoma Cells. [Related pubchem assays: 1827 (Project Summary), 1813 (Primary HTS)]; type: functional
[4] = inhibitors of intracellular T. cruzi replication, confirmation, NIH3T3 host cells, beta-gal luminescence (AID 2044); type: functional, cell-based;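 note: intracellular parasites grown in NIH/3T3 mouse fibroblasts as host cells; luminescent beta-galactosidase reporter signal from transgenic T. cruzi replicating inside host cells; inhibitors lower the luminescence signal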
[5] = cytotoxicity toward NIH3T3 fibroblasts, dose response, counter-screen, cell-based, ATP luminescence, mouse fibroblasts (AID 2010); type: functional;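 note: cells exposed to compound for about 90 hours before reading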

Structure (SMILES)	EC50 [1]	EC50 [2]	EC50 [3]	EC50 [4]	EC50 [5]
CCOC(=O)C1=C(CN2CCN(C(=O)c3ccco3)CC2)NC(=O)NC1c1ccccc1 (stereo not given)	> 120 µM (not active)	42.2 µM (active)	> 120 µM (not active)	–	–
Cc1ccc(C#CC[N+](C)(C)CC#Cc2ccccc2)cc1	> 120 µM (not active)	> 120 µM (not active)	> 120 µM (not active)	1.92 µM (active)	> 60 µM (not active)
Cc1cc(C)n(-c2nc3ccccc3c(=O)n2OCC(=O)OCc2ccccc2)n1	> 120 µM (not active)	19.3 µM (active)	17.6 µM (active)	–	–
Cc1ccc(CN=C(N)Nc2nc(C)cc(C)n2)cc1	7.78 µM (active)	> 120 µM (not active)	9.36 µM (active)	–	–
Cc1ccc(CNC(=O)C2CCN(S(=O)(=O)c3ccc4c(c3)CC(C)N4C(=O)C3CCC3)CC2)o1 (stereo not given)	12.3 µM (active)	13 µM (active)	> 120 µM (not active)	–	–
CC(=O)c1ccc(NC2CC(O)C(O)CO2)cc1 (stereo not given)	16.1 µM (active)	> 120 µM (not active)	> 120 µM (not active)	–	–
